# Measured values: US12390473B2, “Methods of treating tyrosine kinase inhibitor-induced diarrhea” (THE REGENTS OF THE UNIVERSITY OF CALIFORNIA, priority 2019, dated 2025)
# Experiments:
# [1] = tested on: T84 human colonic epithelial cells; test: Short-circuit current in T84 cell monolayers, identical apical and basolateral solutions; assay type: cell-based; settings: for effect on residual afatinib-induced carbachol response in BAPTA-treated cells: 10 μM inhibitor; for effect on residual afatinib-induced carbachol response in BAPTA-treated cells / short-circuit current, TKI alone: 20 μM afatinib; for effect on carbachol and forskolin induced current responses, without and with afatinib pretreatment: 30 μM clotrimazole, 10 μM senicapoc, 30 min prior to 100 μM carbachol then 10 μM forskolin; for effect of higher concentrations on the small residual current: data not shown; for short-circuit current, TKI alone: 40 μM lapatinib, 20 μM gefitinib, before carbachol
# Protocol: T84 cells (ATCC CCL-248) are cultured in a 1:1 mixture of DMEM/Ham's F-12 medium supplemented with 10% FBS, 100 U/mL penicillin and 100 μg/mL streptomycin. Cells are grown on Snapwell inserts (Costar Corning, Horseheads, NY) at 37° C. in 5% CO2/95% air and used 7-10 days after plating.
# T84 cells are mounted in Ussing chambers and bathed in symmetrical HCO3-buffered solution containing (in mM): 120 NaCl, 5 KCl, 1 MgCl2, 1 CaCl2, 10 D-glucose, 5 HEPES and 25 NaHCO3 (pH 7.4). The solutions are aerated with 95% O2/5% CO2 and maintained at 37° C. For measurement of basolateral K^+ conductance, a mucosal-to-serosal K^+ gradient is established using solutions containing K^+ as the major charge-carrying ion. The apical solution contained (in mM): 142.5 K-gluconate, 1.25 CaCl2, 0.40 MgSO4, 0.43 KH2PO4, 0.35 Na2HPO4, 10 HEPES, 5.6 D-glucose, pH 7.4. […] For measurement of apical Cl^− conductance, a basolateral to apical Cl^− gradient is applied. The basolateral solution contained (in mM): 120 NaCl, 1 MgCl2, 1 CaCl2, 10 D-glucose, 5 HEPES and 25 NaHCO3 (pH 7.4). In the apical solution 120 mM NaCl is replaced by 5 mM NaCl and 115 mM Na-gluconate, and the basolateral membrane is permeabilized with 250 μg/ml amphotericin B (Pongkorpsakol P, Pathomthongtaweechai N, Srimanote P, Soodvilai S, Chatsudthipong V, and Muanprasat C. Inhibition of cAMP-activated intestinal chloride secretion by diclofenac: cellular mechanism and potential application in cholera. PLoS Negl Trop Dis. 2014; 8(9):e3119). Short-circuit current is measured using an EVC4000 multichannel voltage clamp (World Precision Instruments, Sarasota, FL). For intestinal short-circuit current measurement, CD1 mice are anesthetized with isoflurane. The ileum is removed, washed with ice-cold Krebs buffer, opened along the mesenteric border, and full-thickness layer is mounted in a micro-Ussing chamber (area 0.7 cm2, World Precision Instruments, Sarasota, FL). Hemichambers are filled with oxygenated Krebs-bicarbonate solution.
# The effect of ErbB TKIs lapatinib, gefitinib, and afatinib on Cl^− secretory responses in T84 human colonic epithelial cells is tested. Short-circuit current is measured in T84 cell monolayers with identical solutions bathing the apical and basolateral surfaces.
# Sprague-Dawley rats = test: Rat model of afatinib diarrhea (stool water content, intestinal histology); assay type: in vivo; settings: for inhibition of the increase in stool water content: days 3 and 4; for reduction of the increased stool water content with afatinib: senicapoc 30 mg/kg oral twice daily
# Protocol: Female Sprague-Dawley rats (age 8-10 weeks) received oral afatinib (60 mg/kg oral) daily for 6 days. […] Rats are placed individually in metabolic cages and given access to water and food. Stool samples are collected for 5 hours. To measure stool water content, the stool samples are dried at 70° C. for 24 hours and water content is calculated as (wet weight−dry weight)/wet weight. Following initial dose-finding studies in mice and rats with several TKIs, using stool water content (from wet and dry weight measurement) as endpoint, a robust, short-term experimental animal model of afatinib diarrhea is established involving daily oral administration of 60 mg/kg afatinib in rats.
# [2] = tested on: basolateral membrane K+ channel(s); test: Basolateral K+ conductance: short-circuit current in apically permeabilized T84 cells with K+ gradient; assay type: cell-based, human; settings: apical membrane permeabilized
# Protocol: (§1) T84 cells are mounted in Ussing chambers and bathed in symmetrical HCO3-buffered solution containing (in mM): 120 NaCl, 5 KCl, 1 MgCl2, 1 CaCl2, 10 D-glucose, 5 HEPES and 25 NaHCO3 (pH 7.4). The solutions are aerated with 95% O2/5% CO2 and maintained at 37° C. For measurement of basolateral K^+ conductance, a mucosal-to-serosal K^+ gradient is established using solutions containing K^+ as the major charge-carrying ion. The apical solution contained (in mM): 142.5 K-gluconate, 1.25 CaCl2, 0.40 MgSO4, 0.43 KH2PO4, 0.35 Na2HPO4, 10 HEPES, 5.6 D-glucose, pH 7.4. […] Short-circuit current is measured using an EVC4000 multichannel voltage clamp (World Precision Instruments, Sarasota, FL).
# To measure basolateral membrane K^+ conductance directly, short-circuit current is measured in T84 cells following permeabilization of the apical membrane with amphotericin B in Cl^− and Na^+ free solutions and an apical-to-basolateral K^+ gradient (FIG. 7A).
# [3] = biological target: T1, apical membrane CFTR Cl- channels (Homo sapiens, UniProt P13569); test: Apical Cl- conductance: short-circuit current in basolaterally permeabilized T84 cells with Cl- gradient; assay type: cell-based; settings: basolateral membrane permeabilized, 10 μM BPO-27
# T1 construct: endogenous in cells; host or cells: T84 (ATCC CCL-248)
# T1 sequence (P13569 whole entry): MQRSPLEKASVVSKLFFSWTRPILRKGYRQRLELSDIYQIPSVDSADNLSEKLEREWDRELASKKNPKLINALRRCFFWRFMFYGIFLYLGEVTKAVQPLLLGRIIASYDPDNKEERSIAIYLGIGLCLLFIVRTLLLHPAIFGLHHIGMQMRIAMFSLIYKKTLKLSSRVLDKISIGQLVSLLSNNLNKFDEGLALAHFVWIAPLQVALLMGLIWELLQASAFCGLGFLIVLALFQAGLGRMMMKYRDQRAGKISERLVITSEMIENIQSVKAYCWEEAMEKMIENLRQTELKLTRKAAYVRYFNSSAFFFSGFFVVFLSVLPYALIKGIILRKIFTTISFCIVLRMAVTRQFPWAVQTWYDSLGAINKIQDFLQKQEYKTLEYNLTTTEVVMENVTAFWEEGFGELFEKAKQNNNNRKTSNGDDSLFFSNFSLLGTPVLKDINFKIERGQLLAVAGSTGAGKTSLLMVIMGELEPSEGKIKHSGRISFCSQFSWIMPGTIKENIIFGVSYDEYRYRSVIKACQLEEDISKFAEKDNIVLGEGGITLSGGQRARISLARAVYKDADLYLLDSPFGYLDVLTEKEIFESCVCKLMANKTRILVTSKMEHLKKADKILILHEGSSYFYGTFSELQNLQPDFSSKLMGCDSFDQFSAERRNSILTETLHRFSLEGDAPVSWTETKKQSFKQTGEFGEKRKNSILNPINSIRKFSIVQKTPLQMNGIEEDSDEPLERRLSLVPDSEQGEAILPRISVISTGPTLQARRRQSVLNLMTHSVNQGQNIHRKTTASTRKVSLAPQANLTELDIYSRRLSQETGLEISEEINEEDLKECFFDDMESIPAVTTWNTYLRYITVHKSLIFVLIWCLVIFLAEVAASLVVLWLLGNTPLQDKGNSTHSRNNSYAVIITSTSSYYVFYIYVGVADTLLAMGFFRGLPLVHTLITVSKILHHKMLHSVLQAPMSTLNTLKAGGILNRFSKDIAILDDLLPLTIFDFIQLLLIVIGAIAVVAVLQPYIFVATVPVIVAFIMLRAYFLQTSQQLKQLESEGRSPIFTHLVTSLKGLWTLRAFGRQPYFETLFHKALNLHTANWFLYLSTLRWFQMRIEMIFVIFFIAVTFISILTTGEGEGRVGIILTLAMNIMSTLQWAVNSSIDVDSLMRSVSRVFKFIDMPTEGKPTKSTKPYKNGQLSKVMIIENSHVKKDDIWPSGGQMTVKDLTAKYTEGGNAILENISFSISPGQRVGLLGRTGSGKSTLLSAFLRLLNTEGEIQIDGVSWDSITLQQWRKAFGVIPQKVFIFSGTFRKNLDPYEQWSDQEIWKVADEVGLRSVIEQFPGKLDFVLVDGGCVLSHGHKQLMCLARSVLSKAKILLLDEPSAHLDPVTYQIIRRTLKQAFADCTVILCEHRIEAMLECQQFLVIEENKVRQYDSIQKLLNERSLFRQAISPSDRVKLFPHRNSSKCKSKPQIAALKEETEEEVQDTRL
# [4] = tested on: cAMP-activated K+ channels; test: Inhibition of forskolin-induced short-circuit current in T84 cells (FIG. 11B); assay type: cell-based, human; settings: 10 μM forskolin
# Protocol: as §1
# [5] = biological target: epithelial Ca2+-activated K+ channels (Homo sapiens, UniProt O15554); settings: reported; cited from earlier work
# Sequence of epithelial Ca2+-activated K+ channels (O15554 whole entry): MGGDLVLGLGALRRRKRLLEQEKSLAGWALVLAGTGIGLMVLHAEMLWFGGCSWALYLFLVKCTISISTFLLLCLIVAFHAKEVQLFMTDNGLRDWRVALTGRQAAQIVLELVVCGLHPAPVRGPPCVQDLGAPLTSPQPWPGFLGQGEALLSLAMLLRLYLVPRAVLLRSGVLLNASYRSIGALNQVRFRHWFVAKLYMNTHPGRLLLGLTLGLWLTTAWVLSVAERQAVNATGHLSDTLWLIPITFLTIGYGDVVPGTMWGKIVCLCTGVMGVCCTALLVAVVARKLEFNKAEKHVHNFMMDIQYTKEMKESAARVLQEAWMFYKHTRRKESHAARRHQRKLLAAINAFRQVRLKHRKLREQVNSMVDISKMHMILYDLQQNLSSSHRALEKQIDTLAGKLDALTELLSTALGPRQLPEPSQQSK
# [6] = 30 μM BAPTA-AM, 100 μM carbachol
# [7] = afatinib-treated rats, BPO-27 10 mg/kg ip twice daily, clotrimazole 100 mg/kg oral in two divided doses
molecule,measurement,setting,value
CCn1c(=O)[nH]c2ccccc21 [EBIO],effect of pretreatment on carbachol and forskolin current responses,"[1]; EBIO 500 μM and/or afatinib 20 μM, 25 min prior to 100 μM carbachol then 10 μM forskolin",amplifies the carbachol and forskolin current responses
O=C(O)c1ccc(/C=C2\SC(=S)N(c3cccc(C(F)(F)F)c3)C2=O)cc1 [CFTRinh-172],effect on residual afatinib-induced carbachol response in BAPTA-treated cells,[1]; [6],blocked
"EGF: Epidermal growth factor (NSDSECPLSHDGYCLHDGVCMYIEALDKYACNCVVGYIGERCQYRDLKWWELR; UniProt P01133 971-1023, looked up)",effect on Cl- secretion in response to carbachol,[1]; 100 ng/ml EGF 25 min prior to 100 μM carbachol,greatly reduces
CN(C)C/C=C/C(=O)Nc1cc2c(Nc3ccc(F)c(Cl)c3)ncnc2cc1O[C@H]1CCOC1 [afatinib],intestinal histology,"Sprague-Dawley rats; rats, 60 mg/kg afatinib oral daily","relatively minor pathology up to day 4, but greater epithelial disruption after that"
same,stool water content,"Sprague-Dawley rats; rats, 60 mg/kg afatinib oral daily, days 4-5, baseline ~60%",> 80%
same,intestinal histology (H&E) by day 6,"Sprague-Dawley rats; rats, 60 mg/kg afatinib oral, day 6",scattered epithelial disruption is seen in jejunum (black arrowheads) and villus atrophy in ileum
same,intestinal histology (H&E) up to day 4,"Sprague-Dawley rats; rats, 60 mg/kg afatinib oral, up to day 4",minor injury up to day 4 with villus blunting in ileum
same,EC50,"[1]; Homo sapiens, added 25 min prior to carbachol, read-out: EC50 of amplification of carbachol-induced short-circuit current",~5 µM
same,increase in carbachol response (basolateral K+ conductance) after pretreatment,"[2]; 20 μM afatinib, 100 μM carbachol",~2 fold
Cn1c(=O)c2c(-c3ccccc3)n3c(c2n(C)c1=O)[C@H](c1ccc(Br)o1)Oc1ccc(C(=O)O)cc1-3 [BPO-27],effect on afatinib-amplified carbachol response (apical Cl- conductance),[3],blocked
same,inhibition of the increase in stool water content,"Sprague-Dawley rats; afatinib-treated rats, BPO-27 10 mg/kg ip twice daily from 1 day after first afatinib dose",~50%
same,reduction of the increased stool water content with afatinib,Sprague-Dawley rats; [7],significant reduction
same,inhibitor effect on stool water content by day 5,"Sprague-Dawley rats; afatinib-treated rats, BPO-27 10 mg/kg ip twice daily, day 5",reduced inhibitor effect
same,effect on afatinib augmentation of carbachol-induced current,"[1]; 10 μM BPO-27, 20 μM afatinib, 100 μM carbachol",blocks the afatinib augmentation
same,effect on carbachol-induced current without afatinib,"[1]; 10 μM BPO-27, 100 μM carbachol",little effect
same,effect on residual afatinib-induced carbachol response in BAPTA-treated cells,[1]; [6],blocked
CC(=O)OCOC(=O)CN(CC(=O)OCOC(C)=O)c1ccccc1OCCOc1ccccc1N(CC(=O)OCOC(C)=O)CC(=O)OCOC(C)=O [BAPTA-AM],effect on carbachol response,[1]; [6],largely prevents the carbachol response
NC(=O)C(c1ccccc1)(c1ccc(F)cc1)c1ccc(F)cc1 [senicapoc],reduction of the increased stool water content with afatinib,Sprague-Dawley rats; [7],"Significant, though lesser reduction"
same,"effect on carbachol and forskolin induced current responses, without and with afatinib pretreatment",[1],largely prevents
same,effect of higher concentrations on the small residual current,[1],does not inhibit the residual current
same,IC50 for inhibition of cAMP-dependent basolateral K+ conductance,[4],low micromolar
COc1cc2ncnc(Nc3ccc(F)c(Cl)c3)c2cc1OCCCN1CCOCC1 [gefitinib],"short-circuit current, TKI alone",[1],do not increase short-circuit current
CS(=O)(=O)CCNCc1ccc(-c2ccc3ncnc(Nc4ccc(OCc5cccc(F)c5)c(Cl)c4)c3c2)o1 [lapatinib],"short-circuit current, TKI alone",[1],do not increase short-circuit current
Clc1ccccc1C(c1ccccc1)(c1ccccc1)n1ccnc1 [clotrimazole],inhibition of epithelial Ca2+-activated K+ channels in patch-clamp studies,[5],fully inhibit
same,reduction of the increased stool water content with afatinib,Sprague-Dawley rats; [7],significantly reduced
same,inhibition of the increase in stool water content,"Sprague-Dawley rats; afatinib-treated rats, clotrimazole 100 mg/kg oral in two divided doses",~75%
same,"effect on carbachol and forskolin induced current responses, without and with afatinib pretreatment",[1],largely prevents
same,effect of higher concentrations on the small residual current,[1],does not inhibit the residual current
same,effect on afatinib-amplified carbachol response (basolateral K+ conductance),"[2]; afatinib pretreatment, carbachol",largely blocked
